Measured values: ChEMBL document CHEMBL5029143, “Discovery of New Potent Positive Allosteric Modulators of Dopamine D2 Receptors: Insights into the Bioisosteric Replacement of Proline to 3-Furoic Acid in the Melanostatin Neuropeptide” (J Med Chem, 2021)
Residues, ends and D or L forms follow the SMILES beside them.

Key:
[1] = Neurotoxicity in human SH-SY5Y cells assessed as reduction in cell viability at 200 uM measured after 48 hrs by MTT reduction assay (Rvb= 100 +/- 2.79%); format: cell-based; conditions: read-out: Activity
[2] = biological target: D(2) dopamine receptor (Homo sapiens) (UniProt P14416); conditions: CHO, filed as positive allosteric modulator, dose 0.01 nM, time 10.0 min
Sequence of D(2) dopamine receptor (Homo sapiens) (P14416 whole entry): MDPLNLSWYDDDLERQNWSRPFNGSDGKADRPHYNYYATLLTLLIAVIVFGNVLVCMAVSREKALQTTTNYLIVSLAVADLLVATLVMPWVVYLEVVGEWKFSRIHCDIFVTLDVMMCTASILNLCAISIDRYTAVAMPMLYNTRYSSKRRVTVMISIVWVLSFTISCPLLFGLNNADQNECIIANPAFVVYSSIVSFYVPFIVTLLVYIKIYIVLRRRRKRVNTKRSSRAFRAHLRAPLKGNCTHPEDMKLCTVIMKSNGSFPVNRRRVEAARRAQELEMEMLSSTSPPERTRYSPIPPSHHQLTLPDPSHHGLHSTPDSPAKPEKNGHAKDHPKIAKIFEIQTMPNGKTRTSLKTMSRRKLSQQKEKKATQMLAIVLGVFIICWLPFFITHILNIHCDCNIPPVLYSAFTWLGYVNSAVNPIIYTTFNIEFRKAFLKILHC

[3] = Neurotoxicity in human SH-SY5Y cells assessed as reduction in cell viability at 100 uM measured after 48 hrs by MTT reduction assay (Rvb= 100 +/- 2.79%); format: cell-based; conditions: read-out: Activity
SH-SY5Y = test: Cytotoxicity against human differentiated SH-SY5Y cells assessed as reduction in cell viability at 100 uM measured after 48 hrs by phase contrast microscopic analysis; format: cell-based

| Compound | viability at 48 h, 200 µM [1] [%] | Emax [2] [%] | viability at 48 h, 100 µM [3] [%] | Activity (SH-SY5Y) |
| --- | --- | --- | --- | --- |
| CC(C)C[C@H](NC(=O)c1ccoc1)C(=O)NCC(N)=O | 86 | – | – | – |
| CC(C)C[C@H](NC(=O)[C@@H]1CCCN1)C(=O)NCC(N)=O (H-Pro-Leu-Gly-NH2) | – | 93.6 | – | – |
| NCCc1ccc(O)c(O)c1 [DOPAMINE] | 66.4 | – | 96.9 | – |
| NCCc1cc(O)c(O)cc1O [OXIDOPAMINE] | 4.06 | – | 48.6 | Toxic |
